Source: patent US20260193149A1, “[…] USEFUL MINERAL AMINO ACID COMPLEXES” (Statera Ag, LLC, priority 2022, published 2026)
Values joined by “and” are separate entries in the source; they are usually repeats but may differ in a detail not shown here. Identical values can stand only once.

Columns and labels:
corn [1] = test: Boron absorption into corn leaf after foliar application, growth stage V5 (Example 4)
Description: Each solution was applied independently of one another at these rates, and the applications emulated commercial application conditions, with 30-inch spacings. The test solutions were applied to three different fields to allow for data replication. The corn was at growth stage V5 during the test. Each test solution was evenly applied using a portable foliar applicator ([…] M18 sprayer with a four-gallon tank). Application time per row was recorded to allow for the calculation of an average application rate of the applicator. Any remaining application solution was weighed to allow for the exact calculation of applied solution per acre (converted below to ounces per acre). The solution application rates are reported below in Table 11 and boron application rates are reported below in Table 12. Applications were done in the heat of the day (96° F.), with minimal wind to preclude drift. Control strips for each product at both application rates were identified, and tissue samples from the control strips were collected to reflect an application rate of 0.00 ounces of product per 68 ounces of water.
Tissues were collected after two days using standard tissue collection procedures. Twelve top collar leaves were collected per row. The leaf samples were placed in paper bags and sent to a commercial lab for leaf mineral analysis using ICP-AA.
The application rates reported above Table 11 were adjusted by the concentration of the applied product so that the data could be compared on an equivalent basis, which are reported in Table 12. Tissue boron was regressed against the adjusted applied rates using the Fit Y×X model of SAS JMP (v. 15.0). The Experimental Unit was Field.
Five chemical compounds containing boron were evaluated. The slope of the line was defined according to the following equation: […]

corn [2] = test: Boron absorption into corn leaf after foliar application, growth stage V7 (Example 5); format: in vivo; settings: leaves collected after two days
Description: The same procedure of Example 4 was followed for this Example, and the same application solutions at rate 2 were used and applied to three separate fields of corn at growth stage V7.
Twelve top collar leaves were collected per row.
Tissue boron data were analyzed using the Fit Y×X module of SAS JMP (v. 15.0). The tissue data were compared using the Oneway Analysis option. Means for boric acid and boron lysinate were separated using the Student's t-test.

[3] = corn V5, foliar application, top collar leaves collected after two days, slope of tissue boron vs applied boron

OB(O)O [Boric acid, boric acid, reference compound]
B Absorption, ppm/oz applied B (corn [1]; corn, in vivo, 2 days): 4.58 ppm/oz applied B
increase of corn tissue boron for every ounce of boron applied (corn [1]; corn, in vivo, 2 days): 4.58 ppm

ethanolamine boron [Boron ethanolamine, reference compound]
decrease of boron absorbed into leaf tissue compared to boric acid (corn [1]; corn V5, Example 4): 0.45 ppm
B Absorption, ppm/oz applied B (corn [1]; [3]): 4.13 ppm/oz applied B

boron lysinate
boron absorption greater than boric acid (corn [1]; corn V5, Example 4): 3.92 ppm and 3.08 ppm
increase of corn tissue boron for every ounce of boron applied (corn [1]; corn V5, Example 4, per ounce applied boron): 7.66 ppm
B Absorption, ppm/oz applied B (corn [1]; [3]): 7.66 ppm/oz applied B
Boron Absorption, ppm/oz B (corn [2]): 13.13 ppm/oz B and 13.13^b ppm/oz B
Boron Absorption, ppm/oz B (corn [2]; listed as boron lysinate): 13.13 ppm/oz B
